Laboratory results from patent US4160097A, “1-(2-Phenylureylene)imidazoles” (Westwind Pharmaceuticals, Inc., priority 1977, dated 1979).
In brackets after ≈: the same amount, converted by molar mass.

Tests used:
[1] = test system: Candida albicans; assay: Antifungal activity, agar dilution method; assay type: cell-based, Candida albicans (ATCC No. 10231); details: C. albicans, read-out: Parts Per Million Inhibitions of C. albicans
Procedure: (§1) various compounds of this invention display antifungal and anti-yeast activity.
(§2) In Table IX below are listed the antifungal activity of a number of compounds encompassed in the present invention. These were determined by the agar dilution method as described in Chapters 2 and 3 of Methods in Microbiology, Vol. 7B, edited by J. R. Norris and D. W. Ribbons, Academic Press, New York, 1972.

[2] = test system: Candida tropicalis; assay: Antifungal activity, agar dilution method; assay type: cell-based; details: C. tropicalis, read-out: Parts Per Million Inhibitions of C. tropicalis
Procedure: as §1, §2

[3] = test system: Trichophyton ajelloi; assay: Antifungal activity, agar dilution method; assay type: cell-based; details: Arthroderma uncinatum, T. ajelloi, read-out: Parts Per Million Inhibitions of T. ajelloi
Procedure: as §1, §2

[4] = test system: Trichophyton mentagrophytes; assay: Antifungal activity, agar dilution method; assay type: cell-based, Trichophyton mentagrophytes (ATCC No. 8757 and 9129); details: T. mentagrophytes, read-out: Parts Per Million Inhibitions of T. mentagrophytes
Procedure: as §1, §2

[5] = test system: carrageenan rat paw edema; assay: Rat Paw Edema Assay, Oral Dosing; assay type: in vivo; details: 4 h, 100 mg/kg oral, four hours after drug, read-out: % Difference from Control
Procedure: (§3) The anti-inflammatory activity of representative compounds of this invention was determined by the rat paw edema assay both by local administration (Table XI below) and by oral dosing (Table XII below). For the oral dosing, the procedure of C. A. Winter, E. A. Risley and G. W. Nuss, Proc. Soc. Exp. Biol. Med. III, 544 (1962) was employed with measurement taken four hours after the drug was administered. The local administration tests were carried out similarly except the irritant (carrageenan) and the test compound were injected simultaneously at time zero.
(§4) Tables XI and XII report the anti-inflammatory activity of the compounds tested as % difference in the edema or swelling as compared with the control. These Tables also give the response in many instances of more than one dose level of the same drug.

[6] = test system: Trichophyton rubrum; assay: Antifungal activity, agar dilution method; assay type: cell-based, Trichophyton rubrum (ATCC No. 10218 and 14001); details: T. rubrum, read-out: Parts Per Million Inhibitions of T. rubrum
Procedure: as §1, §2

[7] = test system: humeral or antibody response; assay: hemolysin test in mice; assay type: in vivo; details: Mus musculus, sc, dose reducing antibody activity by 50% vs control, read-out: HL(ED50)
[8] = test system: cell-mediated immune response to the antigen, Mycobacterium tuberculosis H37Ra; assay: delayed hypersensitivity test; assay type: in vivo, mouse; details: Mus musculus, sc; mice; dose reducing edema of cell-mediated immune response by 60% vs control; read-out: D.H.S. (ED60)
Procedure: The immunosuppressant activities of the compounds of this invention were determined via the hemolysin test in mice and by the delayed hypersensitivity test. The hemolysin test used is that described in Methods in Immunology, edited by D. H. Campbell et al, W. A. Benjamin, New York 1963 pages 172-175, and measures humeral or antibody response. The delayed hypersensitivity test measures the effect of a test compound on the ability of a subject mouse to mount a cell-mediated immune response to the antigen, Mycobacterium tuberculosis H37Ra. The mouse is sensitized to the antigen by subcutaneous administration in the base of the tail. The development of the delayed hypersensitivity response may be measured at any time beginning six days after sensitization but is usually done on the ninth day as follows: The right hind paw is injected with purified protein derivative (tuberculin) while the left hind paw (control) receives physiological saline. Both paw volumes are measured after twenty-four hours and significant increase in the volume of the right hand paw is taken as a measure of an effective delayed hypersensitivity response. All compounds were administered by the subcutaneous route.
The D.H.S. (ED60) mg./kg. s.c. value appearing in column 3 is an expression of the effectiveness of the drug in reducing the edema that accompanies the cell-mediated immune response. It is a measure of the number of milligrams per kilogram of body weight of the drug administered subcutaneously which is required to reduce the edema of the cell-mediated immune response by 60% when compared to the control.

[9] = test system: carrageenan rat paw edema; assay: Rat Paw Edema Assay, Local Administration; assay type: in vivo; details: read-out: % Difference from Control; for change in vivo at 0.001 mg: 1 μg; for change in vivo at 0.001 mg / change in vivo at 0.01 mg / change in vivo at 0.1 mg: injected directly into paw; for change in vivo at 0.01 mg: 10 μg; for change in vivo at 0.1 mg: 100 μg; for change in vivo at 100 mg/kg: local administration
Procedure: as §3, §4

[10] = test system: immune response; assay: immunosuppressant activity (general statement); assay type: in vivo, mice; details: statement in words
[11] = test system: Aspergillus niger; assay: Antifungal activity, agar dilution method; assay type: cell-based, Aspergillus niger (ATCC No. 16404); details: A. niger, read-out: Parts Per Million Inhibitions of A. niger
Procedure: as §1, §2

Compound | MIC [1] [µg/mL] | MIC [2] [µg/mL] | MIC [3] [µg/mL] | MIC [4] [µg/mL] | change in vivo at 100 mg/kg [5] [%] | MIC [6] [µg/mL] | ED50 [7] [mg/kg] | ED60 [8] [mg/kg] | change in vivo at 0.001 mg [9] [%] | change in vivo at 0.01 mg [9] [%] | change in vivo at 0.1 mg [9] [%] | immunosuppressant activity [10] | MIC [11] [µg/mL] | change in vivo at 100 mg/kg [9] [%]
O=C(Nc1ccccc1-n1ccnc1)c1ccc(-c2ccccc2)cc1 [Compound 40] | 100 (≈ 295 µM) | 100 (≈ 295 µM) | 100 (≈ 295 µM) | 100 (≈ 295 µM) | -43 |  |  |  |  |  |  |  |  | 
c1ccc2c(c1)ncc1nccn12 [Compound 109, imidazo[1,2-a]quinoxaline, reference compound] |  |  |  | 128 (≈ 757 µM) | -17 | 32 (≈ 189 µM) | > 50 | > 50 | -30.8 | -3.9 | 31.6 | lacks immunosuppressant activity |  | 
Cc1nc2ccccc2n2ccnc12 [Compound 110] |  |  |  | 128 (≈ 699 µM) | -43 | 64 (≈ 349 µM) |  | 50 |  |  |  |  | 128 (≈ 699 µM) | -74
CCCCc1nc2ccccc2n2ccnc12 [Compound 113] | 100 (≈ 444 µM) | 100 (≈ 444 µM) |  | 100 (≈ 444 µM) |  |  |  |  |  |  |  |  |  | 
CCCCCc1nc2ccccc2n2ccnc12 [Compound 114] |  |  |  | 16 (≈ 66.9 µM) | -61 | 1 (≈ 4.18 µM) |  |  | 68.2 | -30 | -132 |  |  | 
c1ccc(Cc2nc3ccccc3n3ccnc23)cc1 [Compound 124] | 100 (≈ 386 µM) | 100 (≈ 386 µM) | 100 (≈ 386 µM) | 100 (≈ 386 µM) |  | 8 (≈ 30.9 µM) |  |  |  |  |  |  |  | 
C1=CCC(c2nc3ccccc3n3ccnc23)CC1 (stereo not drawn) [Compound 130] | 100 (≈ 401 µM) | 100 (≈ 401 µM) | 100 (≈ 401 µM) | 100 (≈ 401 µM) |  |  |  |  |  |  |  |  |  | 
c1ccc(-c2nc3ccccc3n3ccnc23)cc1 [Compound 131, 4-phenylimidazo[1,2-a]quinoxaline, reference compound] |  |  |  | 16 (≈ 65.2 µM) | -52 | 2 (≈ 8.15 µM) | 18 | 81 |  |  |  | only minor activity |  | 
Cc1cccc(-c2nc3ccccc3n3ccnc23)c1 [Compound 133] | 100 (≈ 386 µM) | 100 (≈ 386 µM) | 8 (≈ 30.9 µM) | 8 (≈ 30.9 µM) | -17 | 8 (≈ 30.9 µM) | 0.75 | 32 |  |  |  |  |  | 
Clc1ccc(-c2nc3ccccc3n3ccnc23)cc1 [Compound 140] |  |  |  |  | -35 | < 0.5 | 0.26 | 1.15 |  |  |  |  |  | -78
Nc1ccc(-c2nc3ccccc3n3ccnc23)cc1 [Compound 153] |  | 100 (≈ 384 µM) |  |  |  |  | 1.2 | 5.7 |  |  |  |  |  | 
